Source: BindingDB's records for doi:10.1016/j.ejmech.2018.12.019 (Rheinische Friedrich-Wilhelms-University of Bonn, 2019)

Tests used:
[1] = biological target: ATP-dependent translocase ABCB1 (Homo sapiens, UniProt P08183); test: Inhibition of ABCB1 in human A2780/ADR cells assessed as potentiation of daunorubicin-induced cytotoxicity measured after 72 hrs by MTT assay
[2] = Inhibition of ABCG2 (unknown origin) expressed in MDCK2 cells co-expressing BCRP (unknown origin) assessed as potentiation of SN-38-induced cytotoxicity measured after 72 hrs by MTT assay
[3] = Inhibition of ABCB1 in human A2780/ADR cells assessed as potentiation of daunorubicin-induced cytotoxicity measured after 72 hrs by MTT assay
[4] = biological target: T1, Broad substrate specificity ATP-binding cassette transporter ABCG2 (Homo sapiens, UniProt Q9UNQ0); test: Inhibition of ABCG2 (unknown origin) expressed in MDCK2 cells co-expressing BCRP (unknown origin) assessed as potentiation of SN-38-induced cytotoxicity measured after 72 hrs by MTT assay
T1 sequence (Q9UNQ0 whole entry): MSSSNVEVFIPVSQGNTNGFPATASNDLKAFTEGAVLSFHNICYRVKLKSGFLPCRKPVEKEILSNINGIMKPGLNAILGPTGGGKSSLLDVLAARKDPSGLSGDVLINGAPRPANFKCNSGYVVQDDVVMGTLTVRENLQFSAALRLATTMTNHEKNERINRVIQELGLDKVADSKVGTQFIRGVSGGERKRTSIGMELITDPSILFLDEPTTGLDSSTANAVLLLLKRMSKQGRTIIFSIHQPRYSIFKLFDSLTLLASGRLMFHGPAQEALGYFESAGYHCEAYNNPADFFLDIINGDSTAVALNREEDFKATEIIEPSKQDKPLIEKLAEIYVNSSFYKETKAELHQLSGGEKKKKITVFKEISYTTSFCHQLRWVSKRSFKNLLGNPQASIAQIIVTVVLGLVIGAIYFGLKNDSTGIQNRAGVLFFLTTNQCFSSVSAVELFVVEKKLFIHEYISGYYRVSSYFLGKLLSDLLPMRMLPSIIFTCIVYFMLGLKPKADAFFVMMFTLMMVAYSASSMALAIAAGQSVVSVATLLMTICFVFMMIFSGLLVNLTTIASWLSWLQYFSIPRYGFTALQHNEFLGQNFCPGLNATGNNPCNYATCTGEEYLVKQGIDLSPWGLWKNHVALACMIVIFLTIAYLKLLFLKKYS

Chain of ATP-dependent translocase ABCB1 (P08183 whole entry): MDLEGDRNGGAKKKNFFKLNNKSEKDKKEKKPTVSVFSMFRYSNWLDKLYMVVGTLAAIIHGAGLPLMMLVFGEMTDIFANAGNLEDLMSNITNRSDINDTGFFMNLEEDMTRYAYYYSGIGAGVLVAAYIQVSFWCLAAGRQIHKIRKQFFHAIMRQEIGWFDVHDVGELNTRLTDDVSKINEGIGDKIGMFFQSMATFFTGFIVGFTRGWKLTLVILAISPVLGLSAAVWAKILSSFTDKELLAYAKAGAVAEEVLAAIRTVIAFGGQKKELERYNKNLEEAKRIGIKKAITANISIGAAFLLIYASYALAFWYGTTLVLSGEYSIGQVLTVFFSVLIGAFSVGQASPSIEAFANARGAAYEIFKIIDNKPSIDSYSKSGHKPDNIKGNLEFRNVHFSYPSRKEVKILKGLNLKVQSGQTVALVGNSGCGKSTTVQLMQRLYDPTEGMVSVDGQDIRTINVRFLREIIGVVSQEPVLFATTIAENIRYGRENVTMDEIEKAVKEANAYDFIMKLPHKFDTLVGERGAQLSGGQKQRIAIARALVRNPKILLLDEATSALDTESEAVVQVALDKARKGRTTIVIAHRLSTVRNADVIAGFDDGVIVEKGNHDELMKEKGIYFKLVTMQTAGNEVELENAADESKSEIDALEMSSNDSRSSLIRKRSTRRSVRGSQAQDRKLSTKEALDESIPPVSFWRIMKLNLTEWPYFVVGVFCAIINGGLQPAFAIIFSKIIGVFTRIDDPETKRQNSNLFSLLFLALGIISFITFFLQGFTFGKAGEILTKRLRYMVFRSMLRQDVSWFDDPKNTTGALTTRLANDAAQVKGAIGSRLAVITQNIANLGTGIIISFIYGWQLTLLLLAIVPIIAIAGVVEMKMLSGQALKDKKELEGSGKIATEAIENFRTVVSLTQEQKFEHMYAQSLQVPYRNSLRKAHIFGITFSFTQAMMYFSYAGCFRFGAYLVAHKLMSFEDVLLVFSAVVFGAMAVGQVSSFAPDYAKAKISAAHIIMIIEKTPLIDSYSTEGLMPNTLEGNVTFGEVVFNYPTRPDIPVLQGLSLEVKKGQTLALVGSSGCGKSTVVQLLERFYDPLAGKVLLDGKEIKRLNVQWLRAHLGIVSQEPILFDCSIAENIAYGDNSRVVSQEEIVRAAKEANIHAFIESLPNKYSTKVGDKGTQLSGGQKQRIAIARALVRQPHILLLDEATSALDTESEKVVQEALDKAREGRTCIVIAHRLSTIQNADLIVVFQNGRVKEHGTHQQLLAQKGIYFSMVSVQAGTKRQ

**Q.** With `Cc1cc(Nc2ncc(Cl)c(Nc3ccccc3S(=O)(=O)C(C)C)n2)c(OC(C)C)cc1C1CCNCC1` as the molecule, how does the EC50 [1] read?
**A.** 89 nM

**Q.** Which EC50 [2] does the source give for `O=C(COc1cccc(C(=O)/C=C/c2ccccc2)c1)Nc1ccc2c(c1)COC2=O` here?
**A.** 1170 nM

**Q.** Which results are given for `COc1ccc(-c2c(OCC(=O)Nc3cccc4ccccc34)oc3ccccc3c2=O)cc1OC`?
**A.** EC50 [3]: 3120 nM; EC50 [2]: 446 nM

**Q.** Which EC50 [3] does the source give for `Cc1ccc(-c2c(OCC(=O)Nc3cccc4ccccc34)oc3ccccc3c2=O)cc1` here?
**A.** 5010 nM

**Q.** For `CCCOc1ccc(/C=C/C(=O)c2ccc(O)cc2)cc1`, which EC50 [2] is on record?
**A.** 1250 nM

**Q.** For `COc1cccc(/C=C/C(=O)c2ccc(OCC(=O)Nc3ccc(OC)c(OC)c3)cc2)c1`, which EC50 [2] is on record?
**A.** 1390 nM

**Q.** Which results are given for `O=C(COc1c(-c2ccccc2Cl)oc2ccccc2c1=O)Nc1ccc2c(c1)COC2=O`?
**A.** EC50 [3]: 9900 nM; EC50 [2]: 1220 nM

**Q.** For `COc1cc(C(=O)/C=C/c2cc(OC)c(OC)c(OC)c2)ccc1O`, which EC50 [2] is on record?
**A.** 512 nM

**Q.** Which EC50 [2] does the source give for `COc1ccc(-c2c(OCC(=O)Nc3cccc4ccccc34)oc3ccccc3c2=O)cc1` here?
**A.** 793 nM

**Q.** For `COc1ccc(NC(=O)COc2ccc(C(=O)/C=C/c3cc(OC)c(OC)c(OC)c3)cc2)cc1OC`, which EC50 [2] is on record?
**A.** 107 nM

**Q.** Which EC50 [2] does the source give for `COc1cc(/C=C/C(=O)c2ccc(OCC(=O)NCc3ccc4c(c3)OCO4)cc2)cc(OC)c1OC` here?
**A.** 989 nM

**Q.** For `COc1ccc(NC(=O)COc2ccc(C(=O)/C=C/c3c(F)cccc3F)cc2)cc1OC`, which EC50 [2] is on record?
**A.** 448 nM

**Q.** With `CN1CCN(c2cccc(Nc3nc4c(-c5ccc(S(C)(=O)=O)cc5)cccn4n3)c2)CC1` as the molecule, how does the EC50 [1] read?
**A.** 202 nM

**Q.** With `Cc1ccc(-n2nc(C(C)(C)C)cc2NC(=O)Nc2ccc(OCCN3CCOCC3)c3ccccc23)cc1` [1-[5-tert-butyl-2-(p-tolyl)pyrazol-3-yl]-3-[4-(2-morpholinoethoxy)-1-naphthyl]urea] as the molecule, how does the EC50 [1] read?
**A.** 524 nM

**Q.** For `C[C@]1(O)C[C@@H](c2nc(-c3ccc4ccc(-c5ccccc5)nc4c3)c3c(N)nccn32)C1` [(1s,3s)-3-(8-amino-1-(2-phenylquinolin-7-yl)imidazo[1,5-a]pyrazin-3-yl)-1-methylcyclobutanol], which EC50 [4] is on record?
**A.** 104 nM

**Q.** What about the EC50 [3] of the same molecule?
**A.** 2090 nM

**Q.** With `COC(=O)c1ccc2c(c1)NC(=O)/C2=C(\Nc1ccc(N(C)C(=O)CN2CCN(C)CC2)cc1)c1ccccc1` [BIBF-1120] as the molecule, how does the EC50 [1] read?
**A.** 276 nM

**Q.** For `CC(=O)Nc1cccc(-n2c(=O)n(C3CC3)c(=O)c3c(Nc4ccc(I)cc4F)n(C)c(=O)c(C)c32)c1` [CHEBI:75998], which EC50 [1] is on record?
**A.** 247 nM

**Q.** What does the source list for `COc1cc2ncnc(Nc3ccc(O)c(Br)c3)c2cc1OC` [WHI-P154]?
**A.** EC50 [4]: 189 nM; EC50 [3]: 3080 nM
